Results as given in US20040242587A1, “Pyrrolo[1,2-b]pyridazine compounds” (Pfizer Inc, priority 2003, published 2004).

Compound	melting point
Cc1cc(N2CCC(=O)CC2)c2cc(C)c(-c3ccc(Cl)cc3Cl)n2n1 [Example 9, 1-[7-(2,4-Dichlorophenyl)-2,6-dimethylpyrrolo[1,2-b]pyridazin-4-yl]piperidin-4-one]	169.7 to 171.3 °C
Cc1cc(N[C@@H]2CN(C(=O)OCc3ccccc3)C[C@@H]2O)c2cc(C)c(-c3ccc(Cl)cc3Cl)n2n1 [Example 1, Benzyl (3R,4S)-3-{[7-(2,4-dichlorophenyl)-2.6-dimethylpyrrolo[1,2-b]pyridazin-4-yl]amino}-4-hydroxypvrrolidine-1-carboxylate]	105 to 110 °C
Cc1cc(N2CCC3(CC2)OCCO3)c2cc(C)c(-c3ccc(Cl)cc3Cl)n2n1 [Example 8, 8-[7-(2,4-Dichlorophenyl)-2,6-dimethylpyrrolo[1,2-b]pyridazin-4-yl]-1,4-dioxa-8-azaspiro[4,5]decane]	193.2 to 196.4 °C
Cc1cc(N2CC=C(C(N)=O)CC2)c2cc(C)c(-c3ccc(Cl)cc3Cl)n2n1 [Example 11, 1-[7-(2,4-Dichlorophenyl)-2,6-dimethylpyrrolo[1,2-b]pyridazin-4-yl]-1,2,3,6-tetrahydropyridine-4-carboxamide]	> 212 °C (dec.)
